Patent publication US12612416B2, “Modulators of cystic fibrosis transmembrane conductance regulator” (VERTEX PHARMACEUTICALS INCORPORATED, priority 2020, dated 2026)
Like-named read-outs stand apart in the source and are kept apart here.

What was measured:
[1] = 13-membered ring, HATU/DIEA, 25.0 °C
[2] = target: T1, CFTR-mediated chloride transport in human intestinal epithelial enteroid cells (Homo sapiens, UniProt P13569); assay: Membrane potential dye, Enteroid Assay B; assay type: cell-based; conditions: for Ent. B Max Activity: % of chloride transport of triple combination control: 1 μM (14S)-8-[3-(2-{Dispiro[2.0.2.1]heptan-7-yl}ethoxy)-1H-pyrazol-1-yl]-12,12-dimethyl-...-2,2,4-trione, 3 μM tezacaftor, 300 nM acute ivacaftor; for EC50: enteroid cells, 18-24 hours incubation, acute 10 μM forskolin and 300 nM ivacaftor, read-out: Ent. B EC50
T1 sequence (P13569 with tags, fused parts or gaps DEL508-508): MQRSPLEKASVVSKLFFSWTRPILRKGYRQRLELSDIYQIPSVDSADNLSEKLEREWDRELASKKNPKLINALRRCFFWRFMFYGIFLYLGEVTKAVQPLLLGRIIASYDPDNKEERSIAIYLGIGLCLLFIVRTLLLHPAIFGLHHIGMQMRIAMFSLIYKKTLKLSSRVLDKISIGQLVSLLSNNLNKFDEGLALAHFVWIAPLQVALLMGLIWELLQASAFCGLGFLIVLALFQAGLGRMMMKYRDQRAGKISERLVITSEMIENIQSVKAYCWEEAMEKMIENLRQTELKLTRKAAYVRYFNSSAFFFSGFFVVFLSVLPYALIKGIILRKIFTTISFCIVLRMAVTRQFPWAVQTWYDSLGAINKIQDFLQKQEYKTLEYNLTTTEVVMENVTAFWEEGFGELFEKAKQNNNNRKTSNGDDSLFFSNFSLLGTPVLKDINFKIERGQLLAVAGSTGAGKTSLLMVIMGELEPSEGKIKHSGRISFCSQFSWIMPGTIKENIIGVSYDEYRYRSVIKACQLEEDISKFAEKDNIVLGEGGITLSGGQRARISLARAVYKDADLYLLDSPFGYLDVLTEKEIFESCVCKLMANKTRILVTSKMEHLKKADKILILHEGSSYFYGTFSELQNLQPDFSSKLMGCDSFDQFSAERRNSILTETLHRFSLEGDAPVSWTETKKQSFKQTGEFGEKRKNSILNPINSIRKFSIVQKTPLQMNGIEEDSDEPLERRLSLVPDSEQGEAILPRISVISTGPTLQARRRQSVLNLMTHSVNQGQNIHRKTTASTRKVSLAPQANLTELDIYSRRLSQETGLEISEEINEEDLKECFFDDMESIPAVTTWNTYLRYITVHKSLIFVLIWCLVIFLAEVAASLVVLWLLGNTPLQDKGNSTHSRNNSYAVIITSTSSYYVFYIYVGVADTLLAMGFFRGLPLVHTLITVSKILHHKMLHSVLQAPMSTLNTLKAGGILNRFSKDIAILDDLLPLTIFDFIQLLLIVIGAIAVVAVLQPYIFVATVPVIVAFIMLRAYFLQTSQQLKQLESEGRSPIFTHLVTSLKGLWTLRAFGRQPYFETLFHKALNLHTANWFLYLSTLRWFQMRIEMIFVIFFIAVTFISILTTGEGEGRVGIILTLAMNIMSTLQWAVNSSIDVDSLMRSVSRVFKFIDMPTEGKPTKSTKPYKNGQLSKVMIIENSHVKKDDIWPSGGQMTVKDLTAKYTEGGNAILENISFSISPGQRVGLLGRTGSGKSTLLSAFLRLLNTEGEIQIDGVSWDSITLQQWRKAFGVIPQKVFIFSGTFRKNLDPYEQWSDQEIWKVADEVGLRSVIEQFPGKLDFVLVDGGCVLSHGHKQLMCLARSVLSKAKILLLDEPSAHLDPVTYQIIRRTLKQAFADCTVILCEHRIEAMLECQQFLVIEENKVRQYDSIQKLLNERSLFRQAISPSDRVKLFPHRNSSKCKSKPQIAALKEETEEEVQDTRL
Description: (§1) Base medium (ADF+++) consisted of Advanced DMEM/Ham's F12, 2 mM Glutamax, 10 mM HEPES, […] penicillin/streptomycin.
(§2) Intestinal enteroid maintenance medium (IEMM) consisted of ADF+++, 1×B27 supplement, 1×N2 supplement, 1.25 mM N-acetyl cysteine, 10 mM Nicotinamide, 50 ng/mL hEGF, 10 nM Gastrin, 1 μg/mL hR-spondin-1, 100 ng/mL hNoggin, TGF-b type 1 inhibitor A-83-01, 100 μg/mL Primocin, 10 μM P38 MAPK inhibitor SB202190.
(§3) Bath 1 Buffer consisted of 1 mM MgCl2, 160 mM NaCl, 4.5 mM KCl, 10 mM HEPES, 10 mM Glucose, 2 mM CaCl2).
(§4) Chloride Free Buffer consisted of 1 mM Magnesium Gluconate, 2 mM Calcium Gluconate, 4.5 mM Potassium Gluconate, 160 mM Sodium Gluconate, 10 mM HEPES, 10 mM Glucose.
(§5) BathI Dye Solution consisted of Bath 1 Buffer, 0.04% Pluronic F127, 20 μM Methyl Oxonol, 30 μM CaCCinh-A01, 30 μM Chicago Sky Blue.
(§6) Chloride Free Dye Solution consisted of Chloride Free Buffer, 0.04% Pluronic F127, 20 μM Methyl Oxonol, 30 μM CaCCinh-A01, 30 μM Chicago Sky Blue.
(§7) Chloride Free Dye Stimulation Solution consisted of Chloride Free Dye Solution, 10 μM forskolin, 100 μM IBMX, and 300 nM Compound III.
(§8) Human intestinal epithelial enteroid cells were obtained from the Hubrecht Institute for Developmental Biology and Stem Cell Research, Utrecht, The Netherlands and expanded in T-Flasks as previously described (Dekkers J F, Wiegerinck C L, de Jonge H R, Bronsveld I, Janssens H M, de Winter-de Groot K M, Brandsma A M, de Jong N W M, Bijvelds M J C, Scholte B J, Nieuwenhuis E E S, van den Brink S, Clevers H, van der Ent C K, Middendorp S and M Beekman J M. A functional CFTR assay using primary cystic fibrosis intestinal organoids. Nat Med. 2013 July; 19(7):939-45.).
(§9) Cells were recovered in cell recovery solution, collected by centrifugation at 650 rpm for 5 minutes at 4° C., resuspended in TrypLE and incubated for 5 minutes at 37° C. Cells were then collected by centrifugation at 650 rpm for 5 minutes at 4° C. and resuspended in IEMM containing 10 μM ROCK inhibitor (RI). The cell suspension was passed through a 40 μm cell strainer and resuspended at 1×10^6 cells/mL in IEMM containing 10 μM RI. Cells were seeded at 5000 cells/well into multi-well plates and incubated for overnight at 37° C., 95% humidity and 5% CO2 prior to assay.
(§10) Enteroid cells were incubated with test compound in IEMM for 18-24 hours at 37° C., 95% humidity, and 5% C02. […] Briefly, cells were washed 5 times in Bath 1 Buffer. Bath 1 Dye Solution was added and the cells were incubated for 25 minutes at room temperature. Following dye incubation, cells were washed 3 times in Chloride Free Dye Solution. Chloride transport was initiated by addition of Chloride Free Dye Stimulation Solution and the fluorescence signal was read for 15 minutes. […] Chloride transport was then expressed as a percentage of the chloride transport following treatment with 1 μM (14S)-8-[3-(2-{Dispiro[2.0.2.1]heptan-7-yl}ethoxy)-1H-pyrazol-1-yl]-12,12-dimethyl-2λ^6-thia-3,9,11,18,23-pentaazatetracyclo[17.3.1.111,14.05,10]tetracosa-1(22),5,7,9,19(23),20-hexaene-2,2,4-trione, 3 μM (R)-1-(2,2-difluorobenzo[d][1,3]dioxol-5-yl)-N-(1-(2,3-dihydroxypropyl)-6-fluoro-2-(1-hydroxy-2-methylpropan-2-yl)-1H-indol-5-yl)cyclopropanecarboxamide and 300 nM acute N-[2,4-bis(1,1-dimethylethyl)-5-hydroxyphenyl]-1,4-dihydro-4-oxoquinoline-3-carboxamide triple combination control (% Activity).

[3] = target: T1, CFTR-mediated chloride transport in human intestinal epithelial enteroid cells; assay: Membrane potential dye, Enteroid Assay A; assay type: cell-based; conditions: for Ent. A Max Activity: % of chloride transport of triple combination control: 3 μM (S)-N-((6-aminopyridin-2-yl)sulfonyl)-6-(3-fluoro-5-isobutoxyphenyl)-2-(2,2,4-trimethylpyrrolidin-1-yl)nicotinamide, 3 μM tezacaftor, 300 nM acute ivacaftor; for EC50: enteroid cells, 18-24 hours incubation, acute 10 μM forskolin and 300 nM ivacaftor, read-out: Ent. A EC50
Description: as §1, §2, §3, §4, §5, §6, §7, §8, §9
as §10, with “95% humidity” for “95% humidity,”, “was added,” for “was added”, “with 3” for “with 1”, “μM (S)—N-((6-aminopyridin-2-yl)sulfonyl)-6-(3-fluoro-5-isobutoxyphenyl)-2-(2,2,4-trimethylpyrrolidin-1-yl)nicotinamide,” for “μM (14S)-8-[3-(2-{Dispiro[2.0.2.1]heptan-7-yl}ethoxy)-1H-pyrazol-1-yl]-12,12-dimethyl-2λ^6-thia-3,9,11,18,23-pentaazatetracyclo[17.3.1.111,14.05,10]tetracosa-1(22),5,7,9,19(23),20-hexaene-2,2,4-trione,”

Ent. B Max Activity [2]	EC50 [3]	Compound	Ent. A Max Activity [3]	also measured
+++ (+++ is >60%)		Cc1cccc(C)c1-c1cc2nc(n1)NS(=O)(=O)c1cccc(c1)C(=O)N(C1CC3(CC3)C1)[C@H](CC(C)C)CC2 [Compound 6, (11S)-6-(2,6-Dimethylphenyl)-11-isobutyl-2,2-dioxo-12-spiro[2.3]hexan-5-yl-2 λ6-thia-3,5,12,19-tetrazatricyclo[12.3.1.14,8]nonadeca-1(18),4(19),5,7,14,16-hexaen-13-one]		ring closure, yield after HPLC ([1]; from Cc1cccc(C)c1-c1cc(CC[C@@H](CC(C)C)NC2CC3(CC3)C2)nc(NS(=O)(=O)c2cccc(C(=O)O)c2)n1, amide bond, NMP, 126.6 mM, 2.0 h): 50%; EC50 [2]: < 1 µM
+++ (+++ is >60%)		Cc1cccc(C)c1-c1cc2nc(n1)NS(=O)(=O)c1cccc(c1)C(=O)N(C1CC3(CC3)C1)[C@H](CC1(C(F)(F)F)CC1)CC2 [Compound 7, (11S)-6-(2,6-Dimethylphenyl)-2,2-dioxo-12-spiro[2.3]hexan-5-yl-11-[[1-(trifluoromethyl)cyclopropyl]methyl]-2 λ6-thia-3,5,12,19-tetrazatricyclo [12.3.1.14,8]nonadeca-1(18),4(19),5,7,14,16-hexaen-13-one]		ring closure, yield after HPLC ([1]; from Cc1cccc(C)c1-c1cc(CC[C@@H](CC2(C(F)(F)F)CC2)NC2CC3(CC3)C2)nc(NS(=O)(=O)c2cccc(C(=O)O)c2)n1, amide bond, NMP, 26.8 mM, 16.0 h): 22%; EC50 [2]: < 1 µM
+++ (+++ is >60%)		Cc1cccc(C)c1-c1cc2nc(n1)NS(=O)(=O)c1cccc(c1)C(=O)N(C1CC3(CC3)C1)CCC2C (centres unmarked) [Compound 11, 6-(2,6-dimethylphenyl)-9-methyl-2,2-dioxo-12-spiro[2.3]hexan-5-yl-2λ^6-thia-3,5,12,19-tetrazatricyclo[12.3.1.14,8]nonadeca-1(18),4(19),5,7,14,16-hexaen-13-one]		ring closure, yield after HPLC ([1]; from Cc1cccc(C)c1-c1cc(C(C)CCNC2CC3(CC3)C2)nc(NS(=O)(=O)c2cccc(C(=O)O)c2)n1, amide bond, NMP, 20.1 mM, 16.0 h): 86%; EC50 [2]: 1 to 3 µM
+ (+ is <30%)		Cc1cccc(C)c1-c1nc2nc(c1C)NCCOC(=O)c1cccc(c1)S(=O)(=O)N2 [Compound 24, 6-(2,6-dimethylphenyl)-7-methyl-12-oxa-2 λ6-thia-3,5,9,19-tetraazatricyclo[12.3.1.14,8]nonadeca-1(18),4,6,8(19),14,16-hexaene-2,2,13-trione]		ring closure, yield after HPLC ([1]; from Cc1cccc(C)c1-c1nc(NS(=O)(=O)c2cccc(C(=O)O)c2)nc(OCCN)c1C, ester bond, DMF, 50.7 mM): 23%
	1 to 3 µM	Cc1cccc(C)c1-c1cc2nc(n1)NS(=O)(=O)c1cccc(c1)C(=O)OCC(CCC1(C(F)(F)F)CC1)N2CCC1CCOCC1 (centres unmarked) [Compound 26, 6-(2,6-dimethylphenyl)-2,2-dioxo-9-(2-tetrahydropyran-4-ylethyl)-10-[2-[1-(trifluoromethyl)cyclopropyl]ethyl]-12-oxa-2λ6-thia-3,5,9,19-tetrazatricyclo[12.3.1.14,8]nonadeca-1(18),4(19),5,7,14,16-hexaen-13-one]	+++ (+++ is >60%)	
		Cc1cccc(C)c1-c1cc2nc(n1)NS(=O)(=O)c1ccccc1C(=O)O[C@H](c1ccc(C(C)(C)C)cc1)[C@@H](C)N2 [Compound 27]	+ (+ is <30%)	
	1 to 3 µM	Cc1cccc(C)c1-c1cc2nc(n1)NS(=O)(=O)c1cccc(c1)C(=O)OCC[C@H](c1ccccc1)N2 [Compound 28]	++ (++ is 30-60%)	
		Cc1cccc(C)c1-c1cc2nc(n1)NS(=O)(=O)c1cccc(c1)C(=O)OCC(CCC1(C(F)(F)F)CC1)N2CCC(C)C (centres unmarked) [Compound 30]	+ (+ is <30%)	
	1 to 3 µM	Cc1cccc(C)c1-c1cc2nc(n1)NS(=O)(=O)c1cccc(c1)C(=O)OCC(CCC1(C(F)(F)F)CC1)N2Cc1ccccc1 (centres unmarked) [Compound 31]	++ (++ is 30-60%)	
	1 to 3 µM	Cc1cccc(C)c1-c1cc2nc(n1)NS(=O)(=O)c1cccc(c1)C(=O)OCC[C@@H](c1ccccc1)N2 [Compound 33]	+++ (+++ is >60%)	
		Cc1cccc(C)c1-c1cc2nc(n1)NS(=O)(=O)c1cccc(c1)C(=O)OCC(C)(C)CN2 [Compound 34]	+ (+ is <30%)	
		Cc1cccc(C)c1-c1cc2nc(n1)NS(=O)(=O)c1cccc(c1)C(=O)O[C@@H](C)[C@@H](CC(C)C)N2 [Compound 36]	+ (+ is <30%)	
